Reference: patent US11780845B2 (Relay Therapeutics, Inc., priority 2019, dated 2023)

How the values were obtained:
FGFR2 = FGFR2 (Homo sapiens (Human), UniProt P21802); experiment: Biochemical FGFR2 Caliper assay
SNU-16 = experiment: Cell SNU-16 assay; assay type: cell-based
[1] = Homo sapiens, SNU-16, SNU-16 cells

Sequence of FGFR2 (P21802 22-821): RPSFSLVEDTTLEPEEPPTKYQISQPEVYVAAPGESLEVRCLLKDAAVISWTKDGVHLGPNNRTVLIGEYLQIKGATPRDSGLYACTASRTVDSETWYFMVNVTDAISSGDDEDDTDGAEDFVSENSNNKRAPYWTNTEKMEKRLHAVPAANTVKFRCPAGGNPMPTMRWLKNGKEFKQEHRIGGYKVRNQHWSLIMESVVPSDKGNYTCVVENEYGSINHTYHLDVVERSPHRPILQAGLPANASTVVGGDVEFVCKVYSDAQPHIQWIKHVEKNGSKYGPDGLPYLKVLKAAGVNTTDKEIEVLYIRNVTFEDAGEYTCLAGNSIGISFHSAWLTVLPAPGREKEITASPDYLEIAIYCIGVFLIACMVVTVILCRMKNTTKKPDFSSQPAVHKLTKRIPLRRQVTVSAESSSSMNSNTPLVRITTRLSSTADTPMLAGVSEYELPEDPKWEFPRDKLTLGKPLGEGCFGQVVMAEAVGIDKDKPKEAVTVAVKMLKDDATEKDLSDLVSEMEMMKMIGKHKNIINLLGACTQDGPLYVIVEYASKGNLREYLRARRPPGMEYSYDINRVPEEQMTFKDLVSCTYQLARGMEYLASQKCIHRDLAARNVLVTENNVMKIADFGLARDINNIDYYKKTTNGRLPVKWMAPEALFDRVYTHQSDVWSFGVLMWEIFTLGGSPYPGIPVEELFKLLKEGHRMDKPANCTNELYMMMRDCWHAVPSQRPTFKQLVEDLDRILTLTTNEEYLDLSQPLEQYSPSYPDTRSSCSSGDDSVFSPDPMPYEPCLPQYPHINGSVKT

IC50 (FGFR2) [µM] | IC50 (SNU-16; [1]) [µM] | IC50 (SNU-16; SNU-16 cells) [µM] | SMILES
< 0.1 | ≤ 0.1 |  | C=C(C)C(=O)Nc1ccc(-c2c(-c3ccc(Oc4cccc(C)n4)cc3)c3ncncc3n2C)cc1 [Example 820]
1 to 100 | 1 to 100 |  | C=C(C)C(=O)Nc1ccc(-c2cn3ncnc(N)c3c2-c2ccc(C(=O)N3CCCCC3)cc2)cc1 [Example 821]
0.25 to 1 | 0.25 to 1 |  | C=CC(=O)Nc1ccc(-c2[nH]c3ncnc(N)c3c2-c2ccc(Oc3ccn(C)n3)cc2)cc1 [Example 822]
0.1 to 0.25 | 0.25 to 1 |  | C=C(C)C(=O)Nc1ccc(-c2cn3ncnc(N)c3c2-c2ccc(C(=O)NCC(F)(F)F)cc2)cc1 [Example 823]
0.1 to 0.25 | 0.25 to 1 |  | C=C(C)C(=O)Nc1ccc(-c2c(-c3ccc(Oc4cccc(C)n4)cc3)c3c(N)ncnn3c2C#N)cc1 [Example 824]
0.1 to 0.25 | ≤ 0.1 |  | C=C(C)C(=O)Nc1ccc(-c2cn3ncnc(N)c3c2-c2ccc(C(=O)N3CCCC3)cc2)cc1 [Example 825]
0.25 to 1 | 0.25 to 1 |  | C=C(C)C(=O)Nc1ccc(-c2cn3ncnc(N)c3c2-c2ccc(S(=O)(=O)N3CCCC3)cc2)cc1 [Example 826]
1 to 100 | 1 to 100 |  | C=C(C)C(=O)Nc1ccc(-c2cn3ncnc(N)c3c2-c2ccc(Oc3ncc(F)cn3)c(F)c2)cc1 [Example 827]
1 to 100 | 0.25 to 1 |  | C=CC(=O)N1CCC(c2cn3ncnc(N)c3c2-c2ccc(Oc3cccc(C)n3)cc2)C1 (stereo not drawn) [Example 828]
< 0.1 | ≤ 0.1 |  | C=CC(=O)Nc1ccc(-c2cn3ncnc(N)c3c2-c2ccc(Oc3cccc(C)n3)cc2)cc1 [Example 829]
< 0.1 | ≤ 0.1 |  | C=C(C)C(=O)Nc1ccc(-c2cn3ncnc(N)c3c2-c2ccc(C(=O)NC3CCC3)cc2)cc1 [Example 830]
< 0.1 | 0.1 to 0.25 |  | C=C(C)C(=O)Nc1ccc(-c2[nH]c3cncnc3c2-c2ccc(Oc3cccc(C)n3)cc2)cc1 [Example 831]
1 to 100 | 1 to 100 |  | C=C(C)C(=O)Nc1ccc(-c2c(-c3ccc(C(=O)NCC(F)(F)F)cc3)c3c(N)ncnn3c2CO)cc1 [Example 832]
0.1 to 0.25 | 0.25 to 1 |  | C=CC(=O)N1CCC(O)(c2c(-c3ccc(Oc4cccc(C)n4)cc3)c3c(N)ncnc3n2C)C1 (stereo not drawn) [Example 833]
0.25 to 1 | 0.25 to 1 |  | C=C(C)C(=O)Nc1ccc(-c2cn3ncnc(N)c3c2-c2ccc(S(=O)(=O)NC3CCC3)cc2)cc1 [Example 834]
1 to 100 | 1 to 100 |  | C=CC(=O)Nc1ccc(-c2c(-c3ccc(Oc4cccc(C)n4)cc3)c3c(N)ncnn3c2CO)cc1 [Example 835]
< 0.1 | ≤ 0.1 |  | C=C(C)C(=O)Nc1ccc(-c2c(-c3ccc(Oc4cccc(C)n4)cc3)c3c(N)ncnn3c2C)cc1 [Example 836]
< 0.1 | ≤ 0.1 |  | C=CC(=O)Nc1ccc(-c2cn3ncnc(N)c3c2-c2ccc(C(=O)N3CCCCC3)cc2)cc1 [Example 837]
< 0.1 | ≤ 0.1 |  | C=CC(=O)Nc1ccc(-c2cn3ncnc(N)c3c2-c2ccc(C(=O)NCC(F)(F)F)cc2)cc1 [Example 838]
< 0.1 | ≤ 0.1 |  | C=CC(=O)N1CC(c2c(-c3ccc(Oc4cccc(C)n4)cc3)c3c(N)ncnc3n2C)C[C@@H]1C (stereo partly drawn) [Example 839]

IC50 (FGFR2) [µM] | IC50 (SNU-16; [1]) [µM] | IC50 (SNU-16; SNU-16 cells) [µM] | SMILES
< 0.1 | ≤ 0.1 |  | C=C(C)C(=O)Nc1ccc(-c2cn3ncnc(N)c3c2-c2ccc(C(=O)N3CC4CC3C4)cc2)cc1 [Example 840]
0.25 to 1 | 0.25 to 1 |  | C=C(C)C(=O)Nc1ccc(-c2cn3ncnc(N)c3c2-c2ccc(C(=O)NC3CCOC3)cc2)cc1 (stereo not drawn) [Example 841]
0.25 to 1 | 1 to 100 |  | C=C(C)C(=O)Nc1ccc(-c2cn3ncnc(N)c3c2-c2ccc(C(=O)NCC(C)(C)O)cc2)cc1 [Example 842]
0.25 to 1 | 0.25 to 1 |  | C=C(C)C(=O)Nc1ccc(-c2cn3ncnc(N)c3c2C2=CCC(C(=O)N(C)C)CC2)cc1 (stereo not drawn) [Example 843]
1 to 100 | 1 to 100 |  | C=CC(=O)N1CCC(c2c(-c3ccc(Oc4cccc(C)n4)cc3)c3c(N)ncnc3n2C)C1(C)C (stereo not drawn) [Example 844]
0.25 to 1 | 0.25 to 1 |  | C=CC(=O)N1CCC(n2cc(-c3c(-c4ccc(C(=O)NC5CCOC5)cc4)c4c(N)ncnc4n3C)cn2)CC1 (stereo not drawn) [Example 845]
< 0.1 | 1 to 100 |  | C=C(C)C(=O)Nc1ccc(-c2c(-c3ccc(C(=O)N4CCCCC4)cc3)c3c(N)ncnn3c2CO)cc1 [Example 846]
0.25 to 1 | 0.25 to 1 |  | C=CC(=O)N1CC(c2c(-c3ccc(Oc4cccc(C)n4)cc3)c3c(N)ncnc3n2C)C[C@H]1C (stereo partly drawn) [Example 847]
0.1 to 0.25 | 0.1 to 0.25 |  | C=CC(=O)N1CCC(n2cc(-c3c(-c4ccc(C(=O)N5CC6CC5C6)cc4)c4c(N)ncnc4n3C)cn2)CC1 [Example 848]
0.1 to 0.25 | 0.25 to 1 |  | C=CC(=O)N1CCC(n2cc(-c3c(-c4ccc(C(=O)N(C)Cc5nc(C)no5)cc4)c4c(N)ncnc4n3C)cn2)CC1 [Example 849]
1 to 100 | 1 to 100 |  | C=CC(=O)N1CCC(N)(c2c(-c3ccc(Oc4cccc(C)n4)cc3)c3c(N)ncnc3n2C)C1 (stereo not drawn) [Example 850]
1 to 100 | 1 to 100 |  | C=CC(=O)N1CCC(n2cc(-c3c(-c4ccc(C(=O)NCC(C)(C)OC)cc4)c4c(N)ncnc4n3C)cn2)CC1 [Example 851]
0.25 to 1 | 1 to 100 |  | C=C(C)C(=O)Nc1ccc(-c2cn3ncnc(N)c3c2-c2ccc(C(=O)NCC(C)(C)OC)cc2)cc1 [Example 852]
0.25 to 1 | 0.1 to 0.25 |  | C=C(C)C(=O)Nc1ccc(-c2c(-c3ccc(C(=O)c4cccc(C)n4)cc3)c3c(N)ncnn3c2COC)cc1 [Example 853]
0.1 to 0.25 | ≤ 0.1 |  | C=CC(=O)N1CCC(n2cc(-c3c(-c4ccc(C(=O)NCC(C)(C)O)cc4)c4c(N)ncnc4n3C)cn2)CC1 [Example 854]
0.25 to 1 | 1 to 100 |  | C=CC(=O)N1CCC(n2cc(-c3c(-c4ccc(Oc5ccn(C)n5)cc4)c4c(N)ncnc4n3C)cn2)CC1 [Example 855]
0.25 to 1 | 0.25 to 1 |  | C=C(C)C(=O)Nc1ccc(-c2c(-c3ccc(Oc4cccc(C)n4)cc3)c3c(N)ncnn3c2CN(C)C)cc1 [Example 856]
1 to 100 | 1 to 100 |  | C=C(C)C(=O)Nc1ccc(-c2[nH]c3ncnc(N)c3c2-c2ccc(Oc3cccc(C)n3)cc2)nc1 [Example 857]
< 0.1 | ≤ 0.1 |  | Cn1c(C2CCN(C#N)C2)c(-c2ccc(C(=O)N3CCCC3)cc2)c2c(N)ncnc21 (stereo not drawn) [Example 858]
1 to 100 | 1 to 100 |  | C=CS(=O)(=O)N1CCC(c2c(-c3ccc(C(=O)N4CCCC4)cc3)c3c(N)ncnc3n2C)C1 (stereo not drawn) [Example 859]

IC50 (FGFR2) [µM] | IC50 (SNU-16; [1]) [µM] | IC50 (SNU-16; SNU-16 cells) [µM] | SMILES
1 to 100 | 1 to 100 |  | C=C(C)C(=O)Nc1ccc(-c2nn3ccnc(N)c3c2-c2ccc(C(=O)N3CCCC3)cc2)cc1 [Example 862]
0.1 to 0.25 |  | 0.25 to 1 | C=C(C)C(=O)Nc1cc(-c2c(-c3ccc(C(=O)N4CCCC4)cc3)c3c(N)ncnc3n2C)n(C)n1 [Example 865]
< 0.1 |  | ≤ 0.1 | C=C(C)C(=O)Nc1cc(-c2c(-c3ccc(C(=O)N4CCCC4)cc3)c3c(N)ncnc3n2C)n(C)n1 [Example 866]
1 to 100 | 1 to 100 |  | C=C(C)C(=O)Nc1ccc(-c2nn3ccnc(N)c3c2C2=CCC(C(=O)N3CCCC3)CC2)cc1 (stereo not drawn) [Example 868]
1 to 100 |  | 0.1 to 0.25 | C=C(C)C(=O)Nc1ccc(-c2c(-c3ccc(C(=O)N4CCCC4)cc3)c3c(N)n[nH]c(=O)c3n2C)cc1 [Example 870]
0.1 to 0.25 | 0.25 to 1 |  | C=Cc1ncc(-c2c(-c3ccc(Oc4nccc(C)n4)cc3)c3c(N)ncnc3n2C)cn1 [Example 877]
0.1 to 0.25 | ≤ 0.1 |  | C=C(C)C(=O)Nc1ccc(-c2c(-c3ccc(C(=O)N4CCCC4)cc3)c3c(N)nn(C)c(=O)c3n2C)cc1 [Example 878]
1 to 100 |  | 1 to 100 | C=C(C)C(=O)Nc1ccc(-c2c(-c3ccc(C(=O)N4CCCC4)cc3)c3c(N)n[nH]c(=O)c3n2C)cc1 [Example 879]
1 to 100 | 1 to 100 |  | C=C(C)C(=O)N[C@H]1C[C@H](c2c(-c3ccc(C(=O)N4CCCC4)cc3)c3c(N)ncnc3n2C)C1 [Example 880]
1 to 100 | 1 to 100 |  | Cn1c(-c2ccc(NC(=O)CC#N)cc2)c(-c2ccc(C(=O)N3CCCC3)cc2)c2c(N)ncnc21 [Example 881]
1 to 100 | 1 to 100 |  | C=C(C)C(=O)Nc1ccc(-c2c(C3=C(F)C[C@H](C(=O)N4CCCC4)CC3)c3c(N)ncnc3n2C)cc1 [Example 882]
1 to 100 |  | 1 to 100 | C=CC(=O)N1CC(c2c(-c3ccc(C(=O)c4nccc(C)n4)cc3F)c3c(N)ncnc3n2C)C[C@@H]1C (stereo partly drawn) [Example 885]
0.25 to 1 |  | ≤ 0.1 | C=CC(=O)N1CC(c2c(-c3ccc(C(=O)c4nccc(C)n4)cc3F)c3c(N)ncnc3n2C)C[C@@H]1C (stereo partly drawn) [Example 886]
0.25 to 1 | 0.1 to 0.25 |  | C=CC(=O)N1CC(c2c(C3=CC[C@H](C(=O)N4CCCC4)CC3)c3c(N)ncnc3n2C)C[C@@H]1C (stereo partly drawn) [Example 889]
1 to 100 | 1 to 100 |  | C=CC(=O)N1CC(c2c(C3=CC[C@@H](C(=O)N4CCCC4)CC3)c3c(N)ncnc3n2C)C[C@@H]1C (stereo partly drawn) [Example 890]
1 to 100 | 1 to 100 |  | C=Cc1nc2cc(-c3c(-c4ccc(C(=O)N5CCCC5)cc4)c4c(N)ncnc4n3C)ccc2n1C [Example 893]
1 to 100 | 1 to 100 |  | C=Cc1nc2ccc(-c3c(-c4ccc(C(=O)N5CCCC5)cc4)c4c(N)ncnc4n3C)cc2n1C [Example 895]
0.1 to 0.25 | ≤ 0.1 |  | Cc1ccnc(Oc2ccc(-c3c(-c4ccc(NC(=O)CCl)cc4)n(C)c4ncnc(N)c34)cc2)n1 [Example 897]
< 0.1 | ≤ 0.1 |  | C=C(C)C(=O)Nc1ccc(-c2c(-n3ccc(C(=O)N4CCCC4)cc3=O)c3c(N)ncnc3n2C)cc1 [Example 898]

SMILES | IC50 (FGFR2) [µM] | IC50 (SNU-16; [1]) [µM] | IC50 (SNU-16; SNU-16 cells) [µM]
Cn1c(-c2ccc(NC(=O)C3CN3)cc2)c(-c2ccc(C(=O)N3CCCC3)cc2)c2c(N)ncnc21 (stereo not drawn) [Example 901] | 1 to 100 | 1 to 100 | 
